For one assay, the target named is T1, B-RAF G466V (Homo sapiens, UniProt P15056, G466V).
T1 construct: expressed in transfected cells; host or cells: T-Rex 293 cells (Invitrogen #R71007)
Put plainly: Target protein degradation, assay D: T-Rex 293 cells, HA-BRAF_G466V, 384 well format. The assay is classed as cell-based. The settings on record: T-Rex 293 HA-BRAF_G466V cells, 24 hours, Examples 83-269; for DC50: Assay D; for Dmax: T-REx-293, Assay D. As for the experimental part:
D. T-Rex 293 Cells (384 Well Format)
T-Rex 293 cells were purchased from Invitrogen (#R71007), and stably transfected with a pcDNA4/TO_HA-BRAF_G466V construct, using 400 ug Zeocin for selection. G466V cells are plated in DMEM media (Gibco #11965118) containing 10% FBS (Gibco #16000044), 1% penicillin-streptomycin (ThermoFisher #15140122), 1:250 zeocin (Invitrogen #R-25005), and 1 ng/mL doxycycline (Selleckchem #4163) at a density of 7,500 cells/well in 45 μl on PDL coated, black clear bottom 384 well plates (Corning #354663) and incubated at 37° C.+5% CO2 for 24 hours. The following day, PROTAC compounds in a 1:3 11 point dilution are diluted into DMEM media using an Agilent Bravo. 5 ul of PROTACs suspended in DMEM media are added to the cells, with a final assay concentration ranging from 300 nM to 5 pM in 0.5% DMSO. Plates are incubated at 37° C.+5% CO2 for 24 hours. At the end of treatment, media is aspirated, and cells are fixed in 50 uL 4% PFA (EMS #15710) in PBS++(PBS, 1 mM CaCl, 1 mM MgCl) at RT for 15 minutes. Cells are washed 2× with 60 uL PBS++ and permeabilized in 50 uL 1% Triton X-100 (Sigma #93443) in PBS++ for 5 minutes at RT. Cells are washed in PBS++ prior to blocking with 50 uL Licor blocking buffer (Licor #927-60001) for 1 hour at RT. HA-tagged BRAF was stained using 50 uL HA antibody (CST #3724) at 1:1000 in Licor blocking buffer for two hours at RT. Primary is aspirated before adding 50 ul of secondary antibody solution containing 1:1000 Hoechst (ThermoFisher #62249), 1:1000 HCS CellMask Deep Red Stain (ThermoFisher #H32721), and 1:5000 goat anti-rabbit IgG Alexa-Fluor 488 (ThermoFisher #A32731) in PBS++ for 1 hr at RT. Plates are washed 4× with 60 uL PBS++, then sealed with Adhesive Black Light Absorbing Film (VWR #89087-692) and imaged on the ThermoFisher CX7 PRO high content instrument. BRAF intensity is quantified in HCS Studio software (ThermoFisher), using a custom script, exported, analyzed using KNIME, and curve curation is performed in an ELN (Scilligence). Cell toxicity is measured via comparing number of nuclei in PROTAC treated wells to DMSO controls.
The concentration of an exemplary compound that leads to half maximal degradation (DC50) as well as the maximum degradation observed (Dmax, conventionally expressed as a percentage of control) is shown below in Table 2.

Another assay addresses T2, B-RAF V600E (Homo sapiens, UniProt P15056, V600E).
T2 construct: expressed in transfected cells; host or cells: T-Rex 293 cells (Invitrogen #R71007)
Put plainly: Target protein degradation, assay C: T-Rex 293 cells, HA-BRAF_V600E, 384 well format. The assay is classed as cell-based. The settings on record: T-Rex 293 HA-BRAF_V600E cells, 24 hours, Examples 83-269; for DC50: Assay C; for Dmax: T-REx-293, Assay C. An outline of the steps:
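T-Rex 293 cells stably expressing doxycycline-induced (1 ng/mL) HA-BRAF V600E were treated 24 h at 37 °C with compound (300 nM–5 pM, 11 points, 0.5% DMSO). HA immunofluorescence was quantified by high-content imaging to give DC50 and Dmax (% of control); nuclei counts versus DMSO gauged toxicity.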

Molecules are shown by their SMILES. Some results are limits rather than exact numbers.

T2 sequence (P15056 whole entry V600E): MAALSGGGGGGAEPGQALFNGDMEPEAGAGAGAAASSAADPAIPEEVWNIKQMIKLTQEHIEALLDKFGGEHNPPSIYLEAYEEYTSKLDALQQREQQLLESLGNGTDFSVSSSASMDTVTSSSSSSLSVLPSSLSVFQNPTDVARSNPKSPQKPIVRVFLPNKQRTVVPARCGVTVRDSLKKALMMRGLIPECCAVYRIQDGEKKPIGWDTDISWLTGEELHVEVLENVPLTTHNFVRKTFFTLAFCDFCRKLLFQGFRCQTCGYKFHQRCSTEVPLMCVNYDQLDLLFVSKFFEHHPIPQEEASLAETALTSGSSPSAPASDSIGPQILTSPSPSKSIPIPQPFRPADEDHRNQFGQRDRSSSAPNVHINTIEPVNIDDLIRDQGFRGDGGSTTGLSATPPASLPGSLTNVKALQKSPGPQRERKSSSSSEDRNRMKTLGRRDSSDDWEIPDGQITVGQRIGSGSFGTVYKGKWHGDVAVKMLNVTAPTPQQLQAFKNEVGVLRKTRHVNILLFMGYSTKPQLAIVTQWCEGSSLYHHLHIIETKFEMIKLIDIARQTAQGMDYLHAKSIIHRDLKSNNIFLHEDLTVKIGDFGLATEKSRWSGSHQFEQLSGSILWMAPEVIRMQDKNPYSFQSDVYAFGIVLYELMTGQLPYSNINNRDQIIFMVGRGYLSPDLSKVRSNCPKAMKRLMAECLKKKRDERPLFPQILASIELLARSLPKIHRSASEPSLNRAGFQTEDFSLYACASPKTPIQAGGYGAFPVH
T1 sequence (P15056 whole entry G466V): as the sequence (P15056 whole entry V600E) above, with G466V, E600V counted along it

In general, DC50 refers to the concentration at which degradation of the target reaches its halfway point. A higher DC50 goes with degradation only at high concentration. The term Dmax denotes the largest share of the target that was removed. The low end stands for a partial loss of target, the high end for a fuller loss of target. For `COc1cc(-n2cnc3ccc(Oc4c(F)ccc(NS(=O)(=O)N5CC[C@@H](F)C5)c4C#N)cc3c2=O)ccc1N1CCN(CC2CCN(c3ccc4c(c3)CN(C3CCC(=O)NC3=O)C4=O)CC2)CC1` (stereo partly drawn) [Example 88, (3R)-N-{2-cyano-3-[(3-{4-[4-({1-[2-(2,6-dioxopiperidin-3-yl)-1-oxo-2,3-dihydro-1H-isoindol-5-yl]piperidin-4-yl}methyl)piperazin-1-yl]-3-methoxyphenyl}-4-oxo-3,4-dihydroquinazolin-6-yl)oxy]-4-fluorophenyl}-3-fluoropyrrolidine-1-sulfonamide], on B-RAF G466V, the half-maximal degradation concentration (DC50) is no more than 1 nM and the Dmax fell in the range of 35 to 70%. On B-RAF V600E, this compound gave a half-maximal degradation concentration (DC50) of 5 to 50 nM and a Dmax of no more than 35%.
For `N#Cc1c(NS(=O)(=O)N2CC[C@@H](F)C2)ccc(F)c1Oc1ccc2ncn(-c3cnc(N4CCN(CC5CCN(c6ccc7c(c6)CN(C6CCC(=O)NC6=O)C7=O)CC5)CC4)cn3)c(=O)c2c1` (stereo partly drawn) [Example 89, (3R)-N-{2-cyano-3-[(3-(5-[4-({1-[2-(2,6-dioxopiperidin-3-yl)-1-oxo-2,3-dihydro-1H-isoindol-5-yl]piperidin-4-yl}methyl)piperazin-1-yl]pyrazin-2-yl}-4-oxo-3,4-dihydroquinazolin-6-yl)oxy]-4-fluorophenyl}-3-fluoropyrrolidine-1-sulfonamide] the same measures were 1 to 10 nM, no more than 35%, 5 to 50 nM and 35 to 70%.
The corresponding values for `N#Cc1c(NS(=O)(=O)N2CC[C@@H](F)C2)ccc(F)c1Oc1ccc2ncn(-c3cccc(N4CCN(CC5CCN(c6ccc7c(c6)CN(C6CCC(=O)NC6=O)C7=O)CC5)CC4)c3)c(=O)c2c1` (stereo partly drawn) [Example 90, (3R)-N-{2-cyano-3-[(3-{3-[4-({1-[2-(2,6-dioxopiperidin-3-yl)-1-oxo-2,3-dihydro-1H-isoindol-5-yl]piperidin-4-yl}methyl)piperazin-1-yl]phenyl}-4-oxo-3,4-dihydroquinazolin-6-yl)oxy]-4-fluorophenyl}-3-fluoropyrrolidine-1-sulfonamide] are 1 to 10 nM, 35 to 70%, 50 to 500 nM and 35 to 70%.
For `N#Cc1c(NS(=O)(=O)N2CC[C@@H](F)C2)ccc(F)c1Oc1ccc2ncn(-c3ccc(N4CCN(CC5CCN(c6ccc(C7CCC(=O)NC7=O)cn6)CC5)CC4)cc3)c(=O)c2c1` (stereo partly drawn) [Example 91, (3R)-N-{2-cyano-3-[(3-(4-[4-({1-[5-(2,6-dioxopiperidin-3-yl)pyridin-2-yl]piperidin-4-yl}methyl)piperazin-1-yl]phenyl}-4-oxo-3,4-dihydroquinazolin-6-yl)oxy]-4-fluorophenyl}-3-fluoropyrrolidine-1-sulfonamide] the same measures were 1 to 10 nM, no more than 35%, 5 to 50 nM and 35 to 70%.
On B-RAF G466V, `N#Cc1c(NS(=O)(=O)N2CC[C@@H](F)C2)ccc(F)c1Oc1ccc2ncn(-c3ccc(N4CCN(CC5CCN(c6ccc7c(c6)CN(C6CCC(=O)NC6=O)C7=O)CC5)CC4)nn3)c(=O)c2c1` (stereo partly drawn) [Example 92, (3R)-N-{2-cyano-3-[(3-{6-[4-({1-[2-(2,6-dioxopiperidin-3-yl)-1-oxo-2,3-dihydro-1H-isoindol-5-yl]piperidin-4-yl}methyl)piperazin-1-yl]pyridazin-3-yl}-4-oxo-3,4-dihydroquinazolin-6-yl)oxy]-4-fluorophenyl}-3-fluoropyrrolidine-1-sulfonamide] showed a DC50 of 10 to 30 nM and a maximal degradation (Dmax) of no more than 35%. On B-RAF V600E, this compound had a DC50 of 50 to 500 nM and a Dmax of no more than 35%.
At B-RAF G466V, `N#Cc1c(NS(=O)(=O)N2CC[C@@H](F)C2)ccc(F)c1Oc1ccc2ncn(-c3cccc(N4CCCC(CN5CCN(c6ccc7c(c6)CN([C@H]6CCC(=O)NC6=O)C7=O)CC5)C4)c3)c(=O)c2c1` (stereo partly drawn) [Example 93, (3R)-N-(2-cyano-3-{[3-(3-{3-[(4-{2-[(3S)-2,6-dioxopiperidin-3-yl]-1-oxo-2,3-dihydro-1H-isoindol-5-yl}piperazin-1-yl)methyl]piperidin-1-yl}phenyl)-4-oxo-3,4-dihydroquinazolin-6-yl]oxy}-4-fluorophenyl)-3-fluoropyrrolidine-1-sulfonamide] came in with a DC50 of 1 to 10 nM and a Dmax of no more than 35%. At B-RAF V600E, this compound gave a DC50 of 50 to 500 nM and a Dmax of 35 to 70%.
The corresponding values for `Cc1cc(N2CCC(CN3CCN(c4ccc(-n5cnc6ccc(Oc7c(F)ccc(NS(=O)(=O)N8CC[C@@H](F)C8)c7C#N)cc6c5=O)cc4)CC3)CC2)c(F)c2c1C(=O)N(C1CCC(=O)NC1=O)C2` (stereo partly drawn) [Example 94, (3R)-N-{2-cyano-3-[(3-(4-[4-({1-[2-(2,6-dioxopiperidin-3-yl)-4-fluoro-7-methyl-1-oxo-2,3-dihydro-1H-isoindol-5-yl]piperidin-4-yl}methyl)piperazin-1-yl]phenyl}-4-oxo-3,4-dihydroquinazolin-6-yl)oxy]-4-fluorophenyl}-3-fluoropyrrolidine-1-sulfonamide] are 1 to 10 nM, no more than 35%, 5 to 50 nM and 35 to 70%.
The corresponding values for `N#Cc1c(NS(=O)(=O)N2CC[C@@H](F)C2)ccc(F)c1Oc1ccc2ncn(-c3ccc(N4CCN(CC5CCN(c6ccc(C7CCC(=O)NC7=O)nc6)CC5)CC4)cc3)c(=O)c2c1` (stereo partly drawn) [Example 95, (3R)-N-{2-cyano-3-[(3-{4-[4-({1-[6-(2,6-dioxopiperidin-3-yl)pyridin-3-yl]piperidin-4-yl}methyl)piperazin-1-yl]phenyl}-4-oxo-3,4-dihydroquinazolin-6-yl)oxy]-4-fluorophenyl}-3-fluoropyrrolidine-1-sulfonamide] are 1 to 10 nM, no more than 35%, 5 to 50 nM and 35 to 70%.
For `N#Cc1c(NS(=O)(=O)N2CC[C@@H](F)C2)ccc(F)c1Oc1ccc2ncn(-c3ccc(N4CCN(CC5CCN(c6ccc(N7CCC(=O)NC7=O)cc6)CC5)CC4)cc3)c(=O)c2c1` [Example 96, (3R)-N-{2-cyano-3-[(3-(4-[4-({1-[4-(2,4-dioxo-1,3-diazinan-1-yl)phenyl]piperidin-4-yl}methyl)piperazin-1-yl]phenyl}-4-oxo-3,4-dihydroquinazolin-6-yl)oxy]-4-fluorophenyl}-3-fluoropyrrolidine-1-sulfonamide] the same measures were 1 to 10 nM, no more than 35%, 5 to 50 nM and 35 to 70%.
On B-RAF G466V, `N#Cc1c(NS(=O)(=O)N2CC[C@@H](F)C2)ccc(F)c1Oc1ccc2ncn(-c3ccn(C4CC5(C4)CN(CC4CCN(c6ccc7c(c6)CN(C6CCC(=O)NC6=O)C7=O)CC4)C5)n3)c(=O)c2c1` (stereo partly drawn) [Example 97, (3R)-N-{2-cyano-3-[(3-{1-[2-({1-[2-(2,6-dioxopiperidin-3-yl)-1-oxo-2,3-dihydro-1H-isoindol-5-yl]piperidin-4-yl}methyl)-2-azaspiro[3.3]heptan-6-yl]-1H-pyrazol-3-yl}-4-oxo-3,4-dihydroquinazolin-6-yl)oxy]-4-fluorophenyl}-3-fluoropyrrolidine-1-sulfonamide] displayed a DC50 of 1 to 10 nM and a Dmax of 35 to 70%. Further, on B-RAF V600E, the DC50 was 50 to 500 nM and the Dmax is 35 to 70%.
